Measured values as given in ChEMBL document CHEMBL1151106, “Chemical studies on mexican plants used in traditional medicine, VI. Additional new 4-phenylcoumarins from Exostema caribaeum” (1988).
≈ marks a conversion by molar mass, not a printed value. Calls of active or inactive are those of the source. The calls are words filed in the database; no cut-off is given here.

The compounds below were run on Candida albicans (assay: Antifungal activity against Candida albicans).
Type: functional

Row | MIC | Structure (SMILES) | Activity
1 | 12.5 µg/mL (≈ 27 µM) | COc1cc(O[C@@H]2O[C@H](CO)[C@H](O)[C@H](O)[C@H]2O)c2c(-c3ccc(O)c(O)c3)cc(=O)oc2c1 | –
2 | – | COc1cc(O)c2c(-c3ccc(OC)c(O)c3)cc(=O)oc2c1 | Active
3 | – | COc1cc(O[C@@H]2O[C@H](CO)[C@@H](O)[C@H](O)[C@H]2O)c2c(-c3ccc(O)c(O)c3)cc(=O)oc2c1 | Active
4 | – | COc1cc(O)c2c(-c3ccc(O)c(O)c3)cc(=O)oc2c1 | inactive
5 | – | COc1ccc(-c2cc(=O)oc3cc(OC)cc(O[C@@H]4O[C@H](CO)[C@H](O)[C@H](O)[C@H]4O)c23)cc1 | Active
6 | – | COc1cc(O[C@@H]2O[C@H](COC(C)=O)[C@H](O)[C@H](O)[C@H]2O)c2c(-c3ccc(O)c(O)c3)cc(=O)oc2c1 | Active
7 | – | COc1cc2c3c(cc(=O)oc3c1)-c1cc(O)c(OC)cc1O2 | inactive
